Consider two substances from paper PMC3877906, “Polypeptide Modulators of TRPV1 Produce Analgesia without Hyperthermia” (Marine Drugs, 2013).

In assay [1] the test system is TRPV1. Briefly: single cell Ca^2+ imaging, acid-induced (pH 5.5) responses of TRPV1-positive HEK-293 cells. In kind it is cell-based, rat. The conditions noted are these: for inhibition of acid responses: Fura-2, mean ± s.d. The procedure:
Figure 2 Effects of APHC3 on recombinant TRPV1 expressed in HEK-293 cells. (a) Resting current recorded from a TRPV1-positive cell held at −30 mV. […] Straight lines above the recording indicate application of APHC3 (Long line) and capsaicin (Short lines). The cells were stimulated and rinsed by rapid switching of the bath solution between the control solution and solutions containing the indicated compound. (b) Capsaicin responses in control and in the presence of the 300 nM APHC3 peptide. In each case, the control response was calculated as an average of two acid responses recorded just prior to peptide application. Averaged responses recorded in the presence of APHC3 were normalized to averaged control responses. Those are presented as the mean ± s.d. (n = 4). […] (c, d) Cell responses to the acidification of the bath solution from pH 7.4 to pH 5.5 in control and in the presence of the APHC3 applied at different concentrations as indicated. The experimental traces in (c) and in (d, upper trace) illustrate representative responses of EGFP/TRPV1-positive cells. The bottom trace in (d) represents responses of an EGFP/TRPV1-negative cell assayed simultaneously. (e) Acid responses recorded in the presence of APHC3 (90, 160 and 240 nM) normalized to a control response. The data are presented as the mean ± s.d. (n = 5–10). […] In each case, the control response was calculated as an average of the two acid responses recorded just prior to peptide application. The average of the two acid responses recorded after peptide application was calculated and normalized to the control response. Experimental traces in (c, d) were obtained from three different cells. The changes in bath solution pH (continuous lines) and APHC3 applications (thick straight lines) are shown above the fluorescence traces. Cells were stimulated and rinsed by a rapid replacement of the control bath solution with modified bath solution at pH 5.5 with or without APHC3.
HEK-293 cells were cultured in Dulbecco’s modified Eagle’s medium (DMEM) (Life Technologies, Grand Island, NY, USA) containing 10% (vol/vol) fetal bovine serum (Thermo Fisher Scientific, Palm Beach, FL, USA), glutamine (1%) and the antibiotic gentamicin (100 μg/mL) (Life Technologies, Grand Island, NY, USA). The pIRES2-EGFP plasmid harboring rat TRPV1 cDNA was transiently transfected into HEK-293 cells by replacing the growth medium in each well with a transfection mixture, containing 1.6 μg of DNA and 4 μL of Lipofectamine (Life Technologies, Grand Island, NY, USA) in 1 mL of serum-free DMEM. After incubating for 6 h, the transfection mixture was replaced with normal culture medium. Cells were assayed within 48–96 h after transfection.

The test system of assay [2] is TRPV1. The conditions noted are these: ref [14], cited from earlier work. The procedure:
APHC3’s mode of action was measured on HEK-293 cells using a whole-cell patch clamp approach and single cell Ca^2+ imaging. […] APHC3 is highly homologous to APHC1, differing in four of 56 amino acids. APHC1 and APHC3 have a primary structure that is highly homologous to BPTI/Kunitz type seri ... || The residues responsible for APHC’s activity are not determined. […] These dif ...

Turning to “APHC3: polypeptide from Heteractis crispa highly homologous to APHC1, differing in four of 56 amino acids; produced recombinantly in E. coli (GSICLEPKVVGPCTAYFPRFYFNSETGKCTPFIYGGCEGNGNNFETLRACRGICRA; left off: TRX, end not stated, cleaved)”, the “reversibility of inhibitory effects” value with TRPV1 [1] (after washout of the polypeptide, Figure 2a,c,d (capsaicin currents and acid responses)) is “almost completely reversible”. Also, the “inhibition of acid-induced Ca^2+ transients, significance” value in the assay with TRPV1 [1] (pH 5.5, 160 and 240 nM, Student test, p < 0.05) was “statistically significant at 160 and 240 nM”. In addition, the “inhibition of acid responses, in words” value with TRPV1 [1] (pH 5.5, APHC3 90 nM, n = 5) is reported as “insignificantly effective”. Moreover, the “inhibition of acid responses” value is given as 15% ± 9% with TRPV1 [1] (pH 5.5, APHC3 160 nM, n = 7) and 77% ± 14% in the assay on TRPV1 [1] (pH 5.5, APHC3 240 nM, 10 cells).
“APHC1: polypeptide modulator of TRPV1 from sea anemone Heteractis crispa; homologous to BPTI/Kunitz type serine-protease inhibitors; produced recombinantly in E. coli (GSICLEPKVVGPCTAYFRRFYFDSETGKCTVFIYGGCEGNGNNFETLRACRAICRA; left off: TRX, end not stated, cleaved)”: the “inhibition of capsaicin-induced currents” value with TRPV1 [2] (more than 200 nM) is on record as ~ 32%. For the same substance, the “activity on capsaicin-induced TRPV1 currents, in words” value with TRPV1 [2] (previous study) was “partial antagonist”.
